Reference: US20150126611A1, “3,3-DIPHENYL-N-(1-PHENYLETHYL) PROPAN-1-AMINE: AS A NEW SELECTIVE LIGAND OF THE SIGMA-1 RECEPTORS, WITH ANTI-APOPTOTIC (CYTOPROTECTIVE) PROPERTIES AND PROTOTYPICAL ANTICANCER ACTIVITY” (priority 2012, published 2015)

Columns and labels:
[1] = system: scopolamine induced amnesia; assay: scopolamine induced amnesia; type: in vivo; settings: mice
[2] = system: Paclitaxel-induced neuropathic pain; assay: neuropathic pain by sensibilisation with Paclitaxel, formalin injection in hind paw; type: in vivo; settings: po, mice
Procedure: Finally, in the experimental protocol of neuropathic pain by sensibilisation with Paclitaxel and evaluation of the neuropathic pain by injection of formalin in the hind paw of mice, the analgesic effect of DPPA was significative from 1.0 mg/kg (po) and was spectacular at higher doses (25 to 75 mg/kg, po). Indeed, the Paclitaxel+DPPA treated mice were less sensible to formalin than the control mice not treated with Paclitaxel.

Aβ25-35 induced amnesia = assay: amyloid Aβ25-35 induced amnesia (Y-maze and step-through); type: in vivo, mice
Text: Indeed, concerning the cytodegenerative diseases and more specifically the neurodegenerative diseases (Alzheimer, Huntington, Parkinson or Multiple Sclerosis), DPPA, in contrast to the symptomatic treatments used currently against the above diseases, antagonizes their pathophysiological causes ie., the endocellular biochemical stress and, concerning the neurons, also their fatal entry in the cell cycle. Of particular interest was the action of DPPA when it was coadministered with the inhibitors of the acetylcholinesterases (IAChEases) which are used as symptomatic drugs (principally Rivastigmine, Donepezil and Galantamine) against the Alzheimer's Disease (AD). […] Indeed, DPPA, via its antagonistic action on the M2 muscatinic autoreceptors of the brain cholinergic neurons (M2[−]), abolished the pro-neurodegenerative agonistic activity of the IAChEases on the hyperactivated (by AD or by the soluble Aβ25-35) cerebral M2 muscarinic autoreceptors, originating a new pharmacological approach (M2[−]) and (σ1[+]) against the neurodegenerative effects of Aβ25-35 in AD and also against the deleterious effect of the agonistic action of IAChEases on the M2 muscarinic brain autoreceptors, validating these drugs (IAChEases) as putative therapeutic agents against AD.

[3] = system: colon, prostate, ovarian, pancreas and hepatic cancer cells; assay: in vitro anticancer activity; type: cell-based
M2 muscarinic receptors = biological target: T1, M2 muscarinic receptors (Mus musculus, UniProt Q9ERZ4); assay: peripheral M2 muscarinic antagonism in mice; type: in vivo; settings: 0.1 to 10 mg/kg, ip
T1 construct: from tissue; host or cells: living mice, peripheral tissues
T1 sequence (Q9ERZ4 1-466): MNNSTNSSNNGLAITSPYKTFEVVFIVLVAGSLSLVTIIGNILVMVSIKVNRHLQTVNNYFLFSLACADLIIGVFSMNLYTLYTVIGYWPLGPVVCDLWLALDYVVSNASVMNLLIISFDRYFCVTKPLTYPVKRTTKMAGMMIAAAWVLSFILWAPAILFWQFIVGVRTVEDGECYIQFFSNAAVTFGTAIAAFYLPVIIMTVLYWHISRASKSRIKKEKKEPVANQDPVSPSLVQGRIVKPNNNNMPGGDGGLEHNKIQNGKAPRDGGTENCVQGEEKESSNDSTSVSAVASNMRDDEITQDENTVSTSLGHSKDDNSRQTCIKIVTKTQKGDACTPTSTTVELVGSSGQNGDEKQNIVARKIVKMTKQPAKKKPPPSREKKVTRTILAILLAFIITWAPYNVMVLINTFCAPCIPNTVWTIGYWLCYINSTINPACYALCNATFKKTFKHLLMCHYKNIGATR

sigma-2 receptors = sigma-2 receptors (Homo sapiens, UniProt Q5BJF2); assay: binding to sigma-2 receptors; settings: read-out: median concentrations of binding (IC50) for sigma-2 receptors
M3 muscarinic receptors = biological target: T2, M3 muscarinic receptors (Mus musculus, UniProt Q9ERZ3); assay: peripheral M3 muscarinic antagonism in mice; type: in vivo; settings: 0.1 to 10 mg/kg, ip
T2 construct: from tissue; host or cells: living mice, peripheral tissues

sigma-1 receptors = sigma-1 receptors (Homo sapiens, UniProt Q99720); assay: binding to sigma-1 receptors; settings: read-out: median concentrations of binding (IC50) for sigma-1 receptors
[4] = system: site-2 of the sodium channels; assay: affinity for site-2 of the sodium channels; type: binding
[5] = system: immobility in forced swimming; settings: po, mice, Porsolt; cited from earlier work
[6] = system: mitochondrial toxicity of pentylenetetrazole (PTZ); assay: antagonism of pentylenetetrazole (PTZ) lethality in mice; type: in vivo; settings: PTZ 130 mg/kg ip
Procedure: (§1) More important- at lower doses: 0,01 to 1,00 mg/kg, intraperitoneal (ip) in mice—the cytoprotective activity of DPPA obtained by antagonism of the endoplasmic reticulum stress (ER stress) and amelioration of the cytoprotective autophagic processus of the cells and, more specifically, of neurons (in the neurodegenerative diseases and eldery). […] These cytoprotective activities of DPPA were completed, specifically in neurons, by inhibiting their entry in the cell cycle, as this entry is always fatal for neurons. In contrast, concerning the cancer cells, the above inhibition triggered the apoptotic processus and their death.

[7] = as above; type: in vivo; settings: PTZ 130 mg/kg ip, DPPA 3 mg/kg po
Procedure: as §1

[8] = system: dizocilpine induced amnesia; assay: dizocilpine induced amnesia; type: in vivo; settings: mice
cancer cells = assay: anticancer activity in vitro and in vivo by inoculation of cancer cells in SCID mice; set-up: species or system immunosuppressed SCID mice
Text: The anticancer activity of DPPA was studied in vitro and in vivo by inoculation of cancer cells in immunosuppressed SCID mice. […] Moreover, even when the neuropathic pain, induced by the anticancer drugs was installed, DPPA antagonized it, by inhibition of the hypersensitive neurons injured by the neurotoxicity of the above anticancer drugs.

T2 sequence (Q9ERZ3 whole entry): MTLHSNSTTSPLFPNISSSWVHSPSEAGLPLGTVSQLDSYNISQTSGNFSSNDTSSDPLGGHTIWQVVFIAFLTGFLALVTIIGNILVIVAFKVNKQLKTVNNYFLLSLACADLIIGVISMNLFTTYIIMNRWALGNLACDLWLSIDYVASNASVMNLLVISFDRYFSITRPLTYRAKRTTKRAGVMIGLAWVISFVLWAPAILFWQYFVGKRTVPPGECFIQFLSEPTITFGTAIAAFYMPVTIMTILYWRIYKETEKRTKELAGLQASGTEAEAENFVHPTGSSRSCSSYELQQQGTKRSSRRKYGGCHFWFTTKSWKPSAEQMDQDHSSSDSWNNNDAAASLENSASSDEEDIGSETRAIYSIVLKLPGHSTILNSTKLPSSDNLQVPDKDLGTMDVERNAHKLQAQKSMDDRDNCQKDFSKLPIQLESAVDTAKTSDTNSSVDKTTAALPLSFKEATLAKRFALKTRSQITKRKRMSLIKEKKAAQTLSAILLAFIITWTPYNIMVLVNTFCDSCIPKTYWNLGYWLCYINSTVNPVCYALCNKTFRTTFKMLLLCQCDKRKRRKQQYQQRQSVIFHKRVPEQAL
Sequence of sigma-1 receptors (Q99720 whole entry): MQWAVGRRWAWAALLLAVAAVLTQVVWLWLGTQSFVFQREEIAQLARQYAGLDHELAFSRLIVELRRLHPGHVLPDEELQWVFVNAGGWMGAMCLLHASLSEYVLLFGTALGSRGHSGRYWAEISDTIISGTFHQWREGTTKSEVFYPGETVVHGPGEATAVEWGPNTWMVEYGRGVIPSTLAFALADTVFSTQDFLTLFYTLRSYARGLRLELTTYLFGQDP
Sequence of sigma-2 receptors (Q5BJF2 whole entry): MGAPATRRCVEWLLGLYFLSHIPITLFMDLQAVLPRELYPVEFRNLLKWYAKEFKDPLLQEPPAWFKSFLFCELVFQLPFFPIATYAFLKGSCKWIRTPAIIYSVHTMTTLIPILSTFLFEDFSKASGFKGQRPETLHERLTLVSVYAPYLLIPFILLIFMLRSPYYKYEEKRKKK

SMILES: CC(NCCC(c1ccccc1)c1ccccc1)c1ccccc1 (centres unmarked) [DPPA, 3,3-diphenyl-N-(1-phenylethyl) propan-1-amine]
- antagonism of scopolamine induced amnesia [1]: antagonism
- analgesic effect at higher doses ([2]; 25 to 75 mg/kg): spectacular
- dose from which the analgesic effect was significative ([2]; Paclitaxel sensibilisation, formalin in hind paw): ≥ 1.0 mg/kg
- antiamnesic action on coadministration with IAChEases (Rivastigmine or Donepezil) (Aβ25-35 induced amnesia; intracerebral soluble Aβ25-35, mice, Y-maze and step-through): higher than the sum of the antiamnesic effects of DPPA and IAChEases
- antagonism of amyloids Aβ25-35 induced amnesia (Aβ25-35 induced amnesia; mice): antagonism
- anticancer activity on cancer cells in vitro [3]: demonstrated the anticancer activity
- effects on M2 muscarinic receptors in the periphery (M2 muscarinic receptors): antagonistic effects
- IC50 (sigma-2 receptors): 730 to 850 nM
- effects on M3 muscarinic receptors in the periphery (M3 muscarinic receptors): antagonistic effects
- IC50 (sigma-1 receptors): 14 to 18 nM
- IC50 [4]: 290 nM
- dose at which anti-immobility properties are significative [5]: more than 10 mg/kg
- increase of the latency of lethality of PTZ ([6]; DPPA 10 mg/kg po): 10 fold
- increase of the latency of lethality of PTZ ([6]; DPPA 30 mg/kg po): 20 fold
- increase of the latency of lethality of PTZ [7]: 5 fold
- antagonism of dizocilpine induced amnesia [8]: antagonism
- anticancer activity versus clinically used anticancer drugs (cancer cells): lower than those of the clinically used anticancer drugs
